These are literature values, as cited in patent US9717795B2, “HPPH lyophilized powder injection for injection and preparation method thereof” (ZHEJIANG HISUN PHARMACEUTICAL CO., LTD, priority 2013, dated 2017).

In the case of HPPH, the solubility in water entry was “poor solubility in water”.
